Nine compounds from ChEMBL document CHEMBL1201862, “PubChem BioAssay data set” (2004) can be followed below.

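Results reflect a 48-hour exposure of cells in 96-well plates to compound at five concentrations. Here, GI50 denotes the concentration required for 50% inhibition of growth.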 The source made the active and inactive calls. No stated cut-off is given here; in the data, active = GI50 up to about 1.1 µM and inactive = higher. Where only a bound is given, the exact number is not on record here.

Test systems include SW-620; RPMI-8226; 786-0; HOP-92; SK-MEL-28; NCI-H522; EKVX; SR; HCT-15; SNB-75; DU-145; HCT-116; HT-29; NCI/ADR-RES; CCRF-CEM; MDA-MB-435; OVCAR-3; MDA-MB-231; SNB-19; A498.
What all share (experiment): growth of human tumour cells (NCI), 48 h

Regarding `Clc1ccc(/N=C/c2cc3cc(Br)ccc3nc2Cl)cc1`, the GI50 in the assay with SW-620 was 14.2 µM (inactive); with RPMI-8226 it was 13.2 µM (inactive); in the assay on 786-0 it was > 50 µM (inactive); with HOP-92 it was > 50 µM (inactive); in the assay with SK-MEL-28, 46.5 µM (inactive); with NCI-H522, 15.1 µM (inactive). The GI50 is 29.6 µM (inactive) in the assay on EKVX; 10.1 µM (inactive) with SR; 14.2 µM in the assay with HCT-15; > 50 µM (inactive) in the assay on SNB-75; > 50 µM (inactive) in the assay on DU-145; 12 µM (inactive) in the assay on HCT-116. Also, the GI50 in the assay with HT-29 is 16 µM (inactive); with NCI/ADR-RES, 45.1 µM (inactive); in the assay with CCRF-CEM, 9.08 µM (inactive); in the assay on MDA-MB-435 it was 8.71 µM (inactive).

For `CC(C)(C)c1cc(C(=O)Nc2cc(Br)c(Br)cc2S(N)(=O)=O)cc(C(C)(C)C)c1O`, the GI50 with SW-620 was 9.42 µM (inactive); with RPMI-8226, 8.32 µM (inactive); in the assay on 786-0, 11 µM (inactive); with OVCAR-3, 7.91 µM (inactive); in the assay on HOP-92 it was 6.52 µM (inactive); in the assay on SK-MEL-28, 13.4 µM (inactive). Besides, the GI50 in the assay on NCI-H522 is 11.8 µM (inactive); in the assay on EKVX, 12.8 µM (inactive); with SR, 6 µM (inactive); with HCT-15 it was 3.85 µM; in the assay on SNB-75, 9.31 µM (inactive); with DU-145 it was 15.3 µM (inactive). The GI50 is 8.24 µM (inactive) in the assay with HCT-116; 9.51 µM (inactive) in the assay on MDA-MB-231; 5.01 µM (inactive) in the assay on HT-29; 13.3 µM (inactive) in the assay with SNB-19; 4.28 µM (inactive) with CCRF-CEM; 12.3 µM (inactive) in the assay on MDA-MB-435.

As for `O=c1oc(-c2ccc(O)c(O)c2)cc2cccc(O)c12` [THUNBERGINOL A], the GI50 in the assay with SW-620 was 21.1 µM (inactive); in the assay with RPMI-8226, 10.5 µM (inactive); in the assay with 786-0, 19.6 µM (inactive); in the assay on A498 it was 19.9 µM (inactive); in the assay with OVCAR-3, 10.5 µM (inactive); in the assay with HOP-92, 2.07 µM (inactive). Moreover, the GI50 with NCI-H522 is 15.4 µM (inactive); in the assay on EKVX, 14.1 µM (inactive); in the assay on HCT-15, 4.99 µM; with SNB-75, 23.1 µM (inactive); with DU-145 it was 23.8 µM (inactive); in the assay on HCT-116, 10.3 µM (inactive). In addition, the GI50 in the assay on SNB-19 was 19.1 µM (inactive); in the assay with NCI/ADR-RES, 14.6 µM (inactive); in the assay on CCRF-CEM, 0.998 µM (active); with MDA-MB-435, 24.2 µM (inactive).

On to `CC1COS(=O)O1` (stereo not drawn), for which the GI50 in the assay with SW-620, with RPMI-8226, in the assay with 786-0, in the assay on A498, in the assay on OVCAR-3 and in the assay on HOP-92 was > 100 µM (inactive) each time. Also, the GI50 in the assay on SK-MEL-28 was > 100 µM (inactive); in the assay with NCI-H522, > 100 µM (inactive); in the assay with EKVX, > 100 µM (inactive); in the assay on SR, > 100 µM (inactive); with HCT-15, over 100 µM; in the assay with SNB-75 it was 63 µM (inactive). Further, the GI50 in the assay on HCT-116, in the assay on HT-29, with SNB-19 and in the assay with CCRF-CEM was > 100 µM (inactive) throughout.

For the compound `Cc1ccc(S(=O)(=O)N/N=C2/C3C(CC2(C)C)C2(C)CCCC3(C)C2O)cc1` (stereo not drawn), the GI50 in the assay on SW-620 was > 10 µM (inactive); in the assay on RPMI-8226, 35.6 µM (inactive); with 786-0, 21.3 µM (inactive); with OVCAR-3 it was 34.4 µM (inactive); in the assay on HOP-92 it was 17.2 µM (inactive); with SK-MEL-28, 18.9 µM (inactive). Further, the GI50 was 19.6 µM (inactive) in the assay on NCI-H522; 45.7 µM (inactive) in the assay with EKVX; 20.7 µM (inactive) with SR; 23.2 µM in the assay with HCT-15; 17.7 µM (inactive) in the assay on SNB-75; 39.1 µM (inactive) in the assay with DU-145. Moreover, the GI50 in the assay on HCT-116 is 18.7 µM (inactive); with HT-29, 20.1 µM (inactive); with SNB-19 it was 29.4 µM (inactive); with NCI/ADR-RES, 21.2 µM (inactive); in the assay with CCRF-CEM, 16.8 µM (inactive); in the assay with MDA-MB-435, > 10 µM (inactive).

As for `O=C(O[C@@H](/C=C/c1ccccc1)P1(=O)N(Cc2ccccc2)[C@@H]2CCCC[C@H]2N1Cc1ccccc1)c1ccccc1`, the GI50 in the assay on SW-620 is 3.66 µM (inactive); with RPMI-8226 it was 2 µM (inactive); in the assay on 786-0, 3.89 µM (inactive); in the assay with A498, 5.62 µM (inactive); in the assay on OVCAR-3 it was 5.07 µM (inactive); in the assay with HOP-92, 1.71 µM (inactive). For the same compound, the GI50 was 6.92 µM (inactive) with SK-MEL-28; 4.54 µM (inactive) in the assay with NCI-H522; 3.98 µM (inactive) in the assay with EKVX; 2.68 µM (inactive) in the assay with SR; 2.99 µM with HCT-15; 2.61 µM (inactive) in the assay on HCT-116. The GI50 is 2.96 µM (inactive) in the assay on MDA-MB-231; 3.44 µM (inactive) in the assay with HT-29; 4.54 µM (inactive) in the assay on SNB-19; 3.66 µM (inactive) in the assay with NCI/ADR-RES; 2.31 µM (inactive) in the assay on CCRF-CEM; 3.12 µM (inactive) in the assay on MDA-MB-435.

`COc1ccc([C@H]2CC(=O)NCCCCN2)cc1`: the GI50 was > 100 µM (inactive) in the assay on RPMI-8226; > 100 µM (inactive) in the assay on 786-0; > 100 µM (inactive) in the assay on A498; 57.1 µM (inactive) with HOP-92; > 100 µM (inactive) in the assay on SK-MEL-28; > 100 µM (inactive) with NCI-H522. Besides, the GI50 is > 100 µM (inactive) with EKVX; > 100 µM (inactive) in the assay on SR; over 100 µM in the assay with HCT-15; 55.2 µM (inactive) in the assay on SNB-75; > 100 µM (inactive) with HCT-116; > 100 µM (inactive) with HT-29. Besides, the GI50 with SNB-19 and with CCRF-CEM was > 100 µM (inactive) each time.

With `COc1nc(NC2OC(COC(C)=O)C(OC(C)=O)C(OC(C)=O)C2OC(C)=O)c(-c2csc(N)n2)c(=O)n1C` (stereo not drawn), the GI50 with SW-620 is > 100 µM (inactive); in the assay with RPMI-8226 it was > 100 µM (inactive); with 786-0 it was 20.5 µM (inactive); in the assay with A498, > 100 µM (inactive); in the assay on OVCAR-3, 93.3 µM (inactive); in the assay on HOP-92, 28.4 µM (inactive). Further, the GI50 in the assay with SK-MEL-28 was 55.7 µM (inactive); with NCI-H522 it was 46.5 µM (inactive); with SR, > 100 µM (inactive); in the assay with HCT-15 it was over 100 µM; with SNB-75, 18.4 µM (inactive); with HCT-116 it was 43.8 µM (inactive). The GI50 in the assay with HT-29, in the assay with SNB-19 and in the assay on CCRF-CEM was > 100 µM (inactive) each time.

Consider `Cc1nn(C(=O)Cc2ccccc2)c2c1C(c1ccc(O)cc1O)SC(=N)N2` (stereo not drawn), for which the GI50 in the assay on SW-620, in the assay with RPMI-8226, in the assay with 786-0, with A498, in the assay with SK-MEL-28 and with NCI-H522 was > 100 µM (inactive) each time. The GI50 in the assay on EKVX was > 100 µM (inactive); in the assay with SR it was > 100 µM (inactive); with HCT-15, over 100 µM; in the assay with SNB-75, 17.2 µM (inactive); in the assay on DU-145 it was > 100 µM (inactive); in the assay on HCT-116 it was > 100 µM (inactive). In addition, the GI50 in the assay with MDA-MB-231, in the assay with HT-29, with SNB-19, with CCRF-CEM and with MDA-MB-435 was > 100 µM (inactive) throughout.
